Assay [1] addresses T1, HAC1 catalytic domain (recombinant HAC1) (Arabidopsis thaliana, UniProt Q9C5X9).
T1 construct: HAT catalytic domain aa 1081-1517 (nt 3241-4551 of CDS), C-terminal 6xHis tag, pET28a, E. coli BL21(DE3), partially purified, 52 kDa
Put plainly: colorimetric antibody-based HAT activity assay (EpiGentek P-4003), […] nm. Type of assay: biochemical.

In assay [2] the target is T1, HAC1 catalytic domain (recombinant HAC1). The assay is described as above. Type of assay: biochemical. The settings on record: kit HAT substrate as acetyl acceptor, 45 min at 37 °C; partially purified enzyme.

What is called inhibition is the share of the control response that was lost under treatment.

T1 sequence (Q9C5X9 1081-1517): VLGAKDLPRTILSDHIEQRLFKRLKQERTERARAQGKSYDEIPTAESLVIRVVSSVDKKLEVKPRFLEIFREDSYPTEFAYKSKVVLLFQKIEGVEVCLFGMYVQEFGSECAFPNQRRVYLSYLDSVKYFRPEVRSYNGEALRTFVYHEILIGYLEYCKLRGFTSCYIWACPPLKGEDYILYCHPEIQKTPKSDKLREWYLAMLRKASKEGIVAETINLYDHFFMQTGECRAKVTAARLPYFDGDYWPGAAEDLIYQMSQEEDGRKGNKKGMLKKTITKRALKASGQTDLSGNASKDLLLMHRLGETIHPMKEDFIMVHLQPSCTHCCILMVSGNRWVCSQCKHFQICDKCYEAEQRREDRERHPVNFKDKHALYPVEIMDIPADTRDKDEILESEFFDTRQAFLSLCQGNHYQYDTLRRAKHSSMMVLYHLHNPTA

Regarding `O=C1C(Cc2ccc(O)c(Br)c2)CCCC1Cc1ccc(O)c(Br)c1` (centres unmarked) [2c, 2,6-Bis(3-bromo-4-hydroxybenzyl)cyclohexanone], in assay [1], the inhibition at 6 µM is 83%.

Consider `CC(=O)SCCNC(=O)CCNC(=O)[C@H](O)C(C)(C)COP(=O)(O)OP(=O)(O)OC[C@H]1O[C@@H](n2cnc3c(N)ncnc32)[C@H](O)[C@@H]1OP(=O)(O)O` [acetyl-CoA], for which the “colorimetric antibody-based HAT activity assay (EpiGentek P-4003), 450 nm” value in assay [2] is “strip wells were incubated with acetyl-CoA and partially purified HAC1 catalytic domain”.

The record behind these values is PMC9499386, “New Inhibitors of the Human p300/CBP Acetyltransferase Are Selectively Active against the Arabidopsis HAC Proteins” (International Journal of Molecular Sciences, 2022).
